Laboratory results reported in patent US20200323838A1, “LENALIDOMIDE IMMEDIATE RELEASE FORMULATIONS” (Synbias Pharma AG, priority 2017, published 2020).
Values after ≈ are worked out from the molar mass of the structure shown. Read-outs that look alike come from different tables or passages of the source.

What was measured:
[1] = 0.1 HCl buffer (highest solubility); cited from earlier work
[2] = Dissolution of hard gelatin capsules (Xtend Sotax dissolutor, HPLC detection); type: physicochemical
Excerpt: (§1) Micronized lenalidomide form A (d(0.5)=10 μm) was mixed with microcrystalline cellulose in a ratio 1:10, filled manually in Size 2 HGC and analyzed for dissolution. Dissolution experiments were run in Xtend Sotax dissolutor, in phosphate buffer pH 6.5 and 0.01 HCl pH 1.8. Sampling time intervals were 10, 15, 20, min. In house developed isocratic HPLC analytical method was used for detection of lenalidomide in dissolution media.
as §1, with “Non-micronized” for “Micronized”, “(d(0.5)=30” for “(d(0.5)=10”
20 mg of non-micronized lenalidomide form A were mixed with 20 mg microcrystalline cellulose, 60 mg lactose monohydrate and, filled manually in size 2 HGC and analyzed for dissolution as in Example 1.
Formulation prepared according to Example 6 was used for comparative dissolution with Revlimid HGCs in 50 mM phosphate buffer pH 6.8. The results in Table 8 show there was no difference between dissolution profile of Revlimid and tested HGC. […]

[3] = high solubility, low permeability; cited from earlier work
[4] = cited from earlier work
[5] = HCl buffer pH 1.8, containing 1% sodium lauryl sulfate; cited from earlier work

SMILES | solubility [1] [mg/mL] | lenalidomide API dissolved in 10 min [2] [%] | BCS class [3] | time to reach maximum serum concentration (Tmax) ([4]; healthy volunteers, oral) [min] | time to reach maximum serum concentration (Tmax) ([4]; patients with acute myeloid leukemia, oral administration, 25 mg) [min] | solubility [5] [mg/mL]
Nc1cccc2c1CN(C1CCC(=O)NC1=O)C2=O (stereo not drawn) [Lenalidomide, 3-(4-amino-1,3-dihydro-1-oxo-2H-isoindol-2-yl)-2,6-piperidine dione] | 18.0 (≈ 69.4 mM) | ≥ 80 | class III | 46.2 to 60 | 71.4 | 
Nc1cccc2c1CN(C1CCC(=O)NC1=O)C2=O (stereo not drawn) [Polymorph B] |  |  |  |  |  | 5.8 (≈ 22.4 mM)
